This is an account of results in ChEMBL document CHEMBL3991601, “The target landscape of clinical kinase drugs” (Science, 2017).

Calls of active or inactive are those of the source.

Experiment [1] concerns the target BMP-2-inducible protein kinase (Homo sapiens, UniProt Q9NSY1).
Experiment [2] has as its target T1, Cytochrome c1, heme protein, mitochondrial (Homo sapiens, UniProt P08574).
T1 sequence (P08574 whole entry): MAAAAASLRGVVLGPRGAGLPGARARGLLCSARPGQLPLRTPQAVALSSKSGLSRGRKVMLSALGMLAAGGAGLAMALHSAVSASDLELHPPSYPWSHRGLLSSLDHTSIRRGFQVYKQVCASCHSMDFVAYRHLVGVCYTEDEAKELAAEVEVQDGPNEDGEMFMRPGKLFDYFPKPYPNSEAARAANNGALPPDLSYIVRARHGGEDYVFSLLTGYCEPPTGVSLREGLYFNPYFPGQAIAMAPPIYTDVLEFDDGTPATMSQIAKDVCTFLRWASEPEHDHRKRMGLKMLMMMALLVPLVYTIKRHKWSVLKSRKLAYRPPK

Experiment [3] deals with T2, Electron transfer flavoprotein subunit beta (Homo sapiens, UniProt P38117).
T2 sequence (P38117 whole entry): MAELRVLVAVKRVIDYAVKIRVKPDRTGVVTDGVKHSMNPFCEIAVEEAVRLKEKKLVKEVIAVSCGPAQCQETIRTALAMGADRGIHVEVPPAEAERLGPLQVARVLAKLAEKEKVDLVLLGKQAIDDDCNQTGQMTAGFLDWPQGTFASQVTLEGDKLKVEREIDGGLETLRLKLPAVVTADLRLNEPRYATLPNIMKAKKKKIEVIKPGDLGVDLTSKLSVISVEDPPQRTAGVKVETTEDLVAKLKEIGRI

The target of experiment [4] is Tyrosine-protein kinase Fyn (Homo sapiens, UniProt P06241).
Chain of Tyrosine-protein kinase Fyn (P06241 whole entry): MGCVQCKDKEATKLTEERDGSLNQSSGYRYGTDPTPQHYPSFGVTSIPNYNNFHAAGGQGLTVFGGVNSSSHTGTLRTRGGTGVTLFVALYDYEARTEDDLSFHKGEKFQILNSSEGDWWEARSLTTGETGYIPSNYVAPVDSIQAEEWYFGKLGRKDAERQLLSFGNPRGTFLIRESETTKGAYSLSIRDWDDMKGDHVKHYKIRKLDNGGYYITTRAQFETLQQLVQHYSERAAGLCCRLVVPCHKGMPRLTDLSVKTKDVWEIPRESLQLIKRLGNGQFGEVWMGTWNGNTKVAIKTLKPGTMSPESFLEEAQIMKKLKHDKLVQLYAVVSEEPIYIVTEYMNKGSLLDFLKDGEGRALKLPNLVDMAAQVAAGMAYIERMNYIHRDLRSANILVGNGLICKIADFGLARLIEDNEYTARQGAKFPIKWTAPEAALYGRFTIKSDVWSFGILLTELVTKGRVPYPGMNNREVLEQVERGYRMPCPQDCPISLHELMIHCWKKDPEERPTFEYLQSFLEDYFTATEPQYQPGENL
Experiment [5] has as its target Mitogen-activated protein kinase 8 (Homo sapiens, UniProt P45983).
Experiment [6] deals with T3, DNA replication licensing factor MCM4 (Homo sapiens, UniProt P33991).
T3 sequence (P33991 whole entry): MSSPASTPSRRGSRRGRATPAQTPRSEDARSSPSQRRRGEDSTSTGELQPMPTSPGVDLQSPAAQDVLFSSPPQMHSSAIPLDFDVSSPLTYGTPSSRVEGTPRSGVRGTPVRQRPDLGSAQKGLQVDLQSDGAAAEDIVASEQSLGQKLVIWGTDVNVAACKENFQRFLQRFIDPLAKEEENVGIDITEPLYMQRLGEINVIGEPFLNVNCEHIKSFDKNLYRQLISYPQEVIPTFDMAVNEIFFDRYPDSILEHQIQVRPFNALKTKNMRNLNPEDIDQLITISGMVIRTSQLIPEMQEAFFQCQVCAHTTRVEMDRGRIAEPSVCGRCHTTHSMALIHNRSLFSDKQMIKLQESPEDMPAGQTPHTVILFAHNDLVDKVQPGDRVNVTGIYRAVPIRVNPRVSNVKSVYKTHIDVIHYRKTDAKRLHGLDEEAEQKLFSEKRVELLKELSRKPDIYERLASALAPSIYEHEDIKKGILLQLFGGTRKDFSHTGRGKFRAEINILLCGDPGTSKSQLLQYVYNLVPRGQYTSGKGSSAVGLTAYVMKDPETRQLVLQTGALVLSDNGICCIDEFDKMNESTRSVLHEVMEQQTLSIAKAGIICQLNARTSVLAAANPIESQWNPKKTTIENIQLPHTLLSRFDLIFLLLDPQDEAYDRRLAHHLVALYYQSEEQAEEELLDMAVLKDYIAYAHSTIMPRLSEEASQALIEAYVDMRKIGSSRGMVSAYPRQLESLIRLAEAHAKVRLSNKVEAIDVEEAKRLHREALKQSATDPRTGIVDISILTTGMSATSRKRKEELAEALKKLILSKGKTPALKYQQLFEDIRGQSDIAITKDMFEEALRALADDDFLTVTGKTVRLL

The next experiment deals with T4, Pyridoxal kinase (Homo sapiens, UniProt O00764).
T4 sequence (O00764 whole entry): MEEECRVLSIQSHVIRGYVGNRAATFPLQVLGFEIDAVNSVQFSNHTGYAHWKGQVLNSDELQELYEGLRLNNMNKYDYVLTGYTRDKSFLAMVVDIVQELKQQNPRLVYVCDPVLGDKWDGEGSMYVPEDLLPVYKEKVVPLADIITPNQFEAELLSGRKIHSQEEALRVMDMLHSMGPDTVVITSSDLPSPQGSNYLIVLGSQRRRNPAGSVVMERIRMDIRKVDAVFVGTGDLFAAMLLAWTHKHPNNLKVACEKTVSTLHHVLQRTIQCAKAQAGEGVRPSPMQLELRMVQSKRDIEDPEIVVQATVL

Experiment [7] concerns the target STE20-like serine/threonine-protein kinase (Homo sapiens, UniProt Q9H2G2).
Experiment [8] concerns the target T5, Serine/threonine-protein kinase STK11 (Homo sapiens, UniProt Q15831).
T5 sequence (Q15831 whole entry): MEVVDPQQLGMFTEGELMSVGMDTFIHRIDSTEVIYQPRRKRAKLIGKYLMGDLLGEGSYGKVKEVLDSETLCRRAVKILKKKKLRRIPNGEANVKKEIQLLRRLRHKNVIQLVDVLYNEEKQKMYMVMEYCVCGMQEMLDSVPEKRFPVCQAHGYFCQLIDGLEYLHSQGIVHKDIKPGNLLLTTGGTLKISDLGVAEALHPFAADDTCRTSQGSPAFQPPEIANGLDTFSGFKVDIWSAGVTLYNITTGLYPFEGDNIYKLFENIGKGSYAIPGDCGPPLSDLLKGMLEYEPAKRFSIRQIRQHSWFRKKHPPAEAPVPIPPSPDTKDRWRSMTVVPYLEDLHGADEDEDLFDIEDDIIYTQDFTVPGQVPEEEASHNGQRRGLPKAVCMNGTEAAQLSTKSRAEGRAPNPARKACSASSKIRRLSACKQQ

Experiment [9] has as its target T6, Serine/threonine-protein kinase 3 (Homo sapiens, UniProt Q13188).
T6 sequence (Q13188 whole entry): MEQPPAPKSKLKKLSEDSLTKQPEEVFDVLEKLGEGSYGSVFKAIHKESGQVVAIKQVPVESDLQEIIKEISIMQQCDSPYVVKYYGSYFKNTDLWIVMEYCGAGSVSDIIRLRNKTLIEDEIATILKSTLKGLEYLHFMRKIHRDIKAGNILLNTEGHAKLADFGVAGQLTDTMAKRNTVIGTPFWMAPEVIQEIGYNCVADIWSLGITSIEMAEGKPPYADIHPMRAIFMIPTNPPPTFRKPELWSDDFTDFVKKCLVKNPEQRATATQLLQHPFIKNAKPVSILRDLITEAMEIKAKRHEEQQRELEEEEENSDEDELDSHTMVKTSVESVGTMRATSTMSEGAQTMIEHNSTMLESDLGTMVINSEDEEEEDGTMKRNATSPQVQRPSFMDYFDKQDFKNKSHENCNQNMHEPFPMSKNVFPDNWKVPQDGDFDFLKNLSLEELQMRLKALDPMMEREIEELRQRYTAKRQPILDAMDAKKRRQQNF
Further: in the data inactive means no Kd found up to 30 µM.

Chain of STE20-like serine/threonine-protein kinase (Q9H2G2 whole entry): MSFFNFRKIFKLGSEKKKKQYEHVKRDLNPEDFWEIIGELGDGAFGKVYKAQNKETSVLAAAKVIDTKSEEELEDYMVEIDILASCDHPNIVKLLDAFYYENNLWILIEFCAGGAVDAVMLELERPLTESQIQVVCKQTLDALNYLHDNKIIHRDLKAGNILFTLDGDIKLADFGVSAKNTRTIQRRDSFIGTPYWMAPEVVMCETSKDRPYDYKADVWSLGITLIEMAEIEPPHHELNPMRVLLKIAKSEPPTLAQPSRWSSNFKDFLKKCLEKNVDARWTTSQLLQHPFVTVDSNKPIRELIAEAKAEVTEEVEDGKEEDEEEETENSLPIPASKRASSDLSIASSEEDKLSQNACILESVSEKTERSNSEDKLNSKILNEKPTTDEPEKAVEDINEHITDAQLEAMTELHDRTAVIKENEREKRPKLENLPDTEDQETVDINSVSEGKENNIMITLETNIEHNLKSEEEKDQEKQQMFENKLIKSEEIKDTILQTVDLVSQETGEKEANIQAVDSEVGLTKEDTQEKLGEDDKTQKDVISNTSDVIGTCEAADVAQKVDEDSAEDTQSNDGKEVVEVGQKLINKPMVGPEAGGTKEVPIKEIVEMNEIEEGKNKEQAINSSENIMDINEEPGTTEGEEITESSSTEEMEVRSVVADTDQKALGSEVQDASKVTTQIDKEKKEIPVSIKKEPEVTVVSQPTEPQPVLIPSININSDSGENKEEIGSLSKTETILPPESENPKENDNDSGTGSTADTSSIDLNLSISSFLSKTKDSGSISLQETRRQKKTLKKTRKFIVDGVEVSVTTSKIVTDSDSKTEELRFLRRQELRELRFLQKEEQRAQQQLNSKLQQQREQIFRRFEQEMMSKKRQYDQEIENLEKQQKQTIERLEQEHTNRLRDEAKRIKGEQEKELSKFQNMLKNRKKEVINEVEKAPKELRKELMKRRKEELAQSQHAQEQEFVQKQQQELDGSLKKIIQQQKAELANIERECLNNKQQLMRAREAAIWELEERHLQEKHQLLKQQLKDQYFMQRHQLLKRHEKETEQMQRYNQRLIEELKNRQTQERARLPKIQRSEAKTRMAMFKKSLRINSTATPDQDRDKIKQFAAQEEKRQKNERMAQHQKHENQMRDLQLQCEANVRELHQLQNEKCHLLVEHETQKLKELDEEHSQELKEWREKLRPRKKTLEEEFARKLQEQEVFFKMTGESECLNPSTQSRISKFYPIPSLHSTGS
Chain of BMP-2-inducible protein kinase (Q9NSY1 whole entry): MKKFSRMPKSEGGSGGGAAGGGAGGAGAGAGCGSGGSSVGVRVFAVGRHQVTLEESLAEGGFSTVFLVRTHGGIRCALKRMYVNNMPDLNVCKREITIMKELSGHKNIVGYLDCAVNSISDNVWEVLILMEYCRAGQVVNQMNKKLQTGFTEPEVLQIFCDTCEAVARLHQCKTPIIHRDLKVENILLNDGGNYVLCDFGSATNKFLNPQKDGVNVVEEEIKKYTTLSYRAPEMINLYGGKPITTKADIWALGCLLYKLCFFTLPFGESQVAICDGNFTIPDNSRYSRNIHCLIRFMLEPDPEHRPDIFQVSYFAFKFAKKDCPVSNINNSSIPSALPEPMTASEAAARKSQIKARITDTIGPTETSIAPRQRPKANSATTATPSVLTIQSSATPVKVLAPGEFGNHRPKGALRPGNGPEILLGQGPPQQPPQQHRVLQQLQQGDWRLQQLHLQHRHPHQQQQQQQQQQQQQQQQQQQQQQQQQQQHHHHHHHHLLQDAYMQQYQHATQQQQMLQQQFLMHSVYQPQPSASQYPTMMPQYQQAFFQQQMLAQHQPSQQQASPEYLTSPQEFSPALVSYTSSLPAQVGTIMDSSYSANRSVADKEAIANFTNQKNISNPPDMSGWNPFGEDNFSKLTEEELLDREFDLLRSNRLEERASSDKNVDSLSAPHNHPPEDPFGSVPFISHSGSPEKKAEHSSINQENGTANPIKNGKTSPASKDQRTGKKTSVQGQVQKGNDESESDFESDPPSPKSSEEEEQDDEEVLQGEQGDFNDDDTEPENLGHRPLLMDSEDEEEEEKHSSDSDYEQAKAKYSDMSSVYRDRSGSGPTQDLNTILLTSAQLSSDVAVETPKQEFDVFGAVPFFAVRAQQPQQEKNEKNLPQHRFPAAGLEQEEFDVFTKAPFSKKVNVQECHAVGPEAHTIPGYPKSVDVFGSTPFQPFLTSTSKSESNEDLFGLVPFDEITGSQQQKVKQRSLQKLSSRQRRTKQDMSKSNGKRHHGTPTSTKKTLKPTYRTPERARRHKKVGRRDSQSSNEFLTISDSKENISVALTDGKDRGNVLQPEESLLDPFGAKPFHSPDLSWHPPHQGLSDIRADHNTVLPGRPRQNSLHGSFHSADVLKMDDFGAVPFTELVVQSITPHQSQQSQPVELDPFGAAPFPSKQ
Chain of Mitogen-activated protein kinase 8 (P45983 whole entry): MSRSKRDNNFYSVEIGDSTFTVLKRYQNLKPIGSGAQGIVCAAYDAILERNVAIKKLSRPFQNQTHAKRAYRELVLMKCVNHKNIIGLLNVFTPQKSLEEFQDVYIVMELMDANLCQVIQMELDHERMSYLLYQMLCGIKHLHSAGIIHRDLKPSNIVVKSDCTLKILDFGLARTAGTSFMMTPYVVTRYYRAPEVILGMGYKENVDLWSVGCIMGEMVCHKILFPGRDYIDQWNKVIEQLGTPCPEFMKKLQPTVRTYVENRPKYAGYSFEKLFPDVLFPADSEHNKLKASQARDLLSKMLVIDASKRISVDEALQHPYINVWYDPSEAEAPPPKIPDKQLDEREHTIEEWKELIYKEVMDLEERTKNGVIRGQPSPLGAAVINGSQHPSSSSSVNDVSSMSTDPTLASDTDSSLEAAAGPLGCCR

A word on the Kd: it is the free concentration of one partner at which half of the binding sites on the other are occupied at equilibrium, for simple one-to-one binding. For `c1cc(OCCN2CCCCC2)cc(-c2n[nH]c3ccc(-c4nc[nH]n4)cc23)c1` [CC-401], the Kd was 1.47 µM (active) in experiment [1]; > 30 µM (inactive) in experiment [2]; > 30 µM (inactive) in experiment [3]; > 30 µM (inactive) in experiment [4]; 0.636 µM (active) in experiment [5]; > 30 µM (inactive) in experiment [6]. Besides, the Kd (on Pyridoxal kinase; in experiment [7]; in experiment [8]; in experiment [9]) was > 30 µM (inactive) each time.
For the compound `NC(=O)c1ccc(N(C(N)=O)c2c(F)cccc2F)nc1-c1ccc(F)cc1F` [VX-702], the Kd in [1], in experiment [2], in experiment [3], in experiment [4], in experiment [5] and in [6] was > 30 µM (inactive) in each case. In addition, the Kd (at Pyridoxal kinase; in experiment [7]; in experiment [8]; in experiment [9]) was > 30 µM (inactive) each time.
For the compound `CC[C@@](C)(Nc1ccnc(-c2c[nH]c3ncccc23)n1)C(=O)NCC(F)(F)F` [DECERNOTINIB], the Kd in experiment [1] is 5.75 µM (active); in experiment [2] it was > 30 µM (inactive); in experiment [3], > 30 µM (inactive); in experiment [4], > 30 µM (inactive); in experiment [5], > 30 µM (inactive); in [6] it was > 30 µM (inactive). Besides, the Kd was > 30 µM (inactive) on Pyridoxal kinase, 0.058 µM (active) in [7], > 30 µM (inactive) in experiment [8] and > 30 µM (inactive) in experiment [9].
For `COc1cc2ncnc(Nc3ccc(O)cc3)c2cc1OC` [WHI-P131], the Kd in experiment [1], in experiment [2], in [3], in experiment [4], in [5] and in experiment [6] was > 30 µM (inactive) each time. Besides, the Kd at Pyridoxal kinase is > 30 µM (inactive); in experiment [7], 4.37 µM (active); in [8] it was > 30 µM (inactive); in experiment [9], > 30 µM (inactive).
As to `CNC(=O)c1cc(COc2nnc(Nc3ccc(Cl)cc3)c3ccoc23)ccn1` [TELATINIB], the Kd in experiment [1], in [2], in experiment [3], in experiment [4], in experiment [5] and in experiment [6] was > 30 µM (inactive) each time. Also, the Kd (on Pyridoxal kinase; in [7]; in experiment [8]; in [9]) was > 30 µM (inactive) in each case.
Turning to `S=C(NCc1ccc2c(c1)OCO2)N1CCN(c2ncnc3c2oc2ccccc23)CC1` [AMUVATINIB], the Kd in [1], in experiment [2], in [3], in experiment [4], in experiment [5] and in experiment [6] was > 30 µM (inactive) each time. In addition, the Kd (on Pyridoxal kinase; in experiment [7]; in experiment [8]; in [9]) was > 30 µM (inactive) in each case.
With `COc1cc(F)c(F)c(Nc2ccc(I)cc2F)c1NS(=O)(=O)C1(C[C@H](O)CO)CC1` [REFAMETINIB], the Kd in experiment [1], in [2], in experiment [3], in experiment [4], in experiment [5] and in experiment [6] was > 30 µM (inactive) each time. In addition, the Kd (at Pyridoxal kinase; in experiment [7]; in experiment [8]; in experiment [9]) was > 30 µM (inactive) each time.
Regarding `Cc1ccc(C(=O)Nc2ccc(Oc3cc4cnn(C)c4cc3-c3cn[nH]c3)c(F)c2)c(=O)n1-c1ccc(F)cc1` [MERESTINIB], the Kd in experiment [1], in experiment [2], in experiment [3], in [4], in experiment [5] and in experiment [6] was > 30 µM (inactive) each time. The Kd (at Pyridoxal kinase; in experiment [7]; in experiment [8]; in experiment [9]) was > 30 µM (inactive) each time.
Regarding `C=CC(=O)Nc1cccc(Nc2nc(Nc3ccc(N4CCN(C(C)=O)CC4)cc3OC)ncc2C(F)(F)F)c1` [ROCILETINIB], the Kd in experiment [1], in [2], in experiment [3], in experiment [4], in experiment [5] and in experiment [6] was > 30 µM (inactive) throughout. Moreover, the Kd (at Pyridoxal kinase; in [7]; in [8]; in [9]) was > 30 µM (inactive) throughout.
In the case of `C=CC(=O)Nc1cc(Nc2nccc(-c3cn(C)c4ccccc34)n2)c(OC)cc1N(C)CCN(C)C` [OSIMERTINIB], the Kd in experiment [1], in [2], in experiment [3], in experiment [4], in [5] and in experiment [6] was > 30 µM (inactive) each time. The Kd (on Pyridoxal kinase; in [7]; in [8]; in experiment [9]) was > 30 µM (inactive) each time.
